Test in all cases: biochemical
Holding throughout (set-up): Eurofins recombinant human kinase profiling, remaining kinase activity as % of control, 10 uM ATP
Common to all, as to conditions: ATP 10 uM; read-out: %Ctrl@10 μM

In assay [1] the target is TSSK3(h) (Homo sapiens, UniProt Q96PN8). The procedure, abridged: (§1)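 Activity measured in a commercial panel of 401 recombinant human protein kinases run as a kinase profiling service.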
Assay [2] addresses T1, Mnk2(h) (Homo sapiens, UniProt Q9HBH9).
T1 construct: gene MKNK2
Summed up: as §1

Assay [3] deals with FGFR2(N549H)(h) (Homo sapiens, UniProt P21802, N549H). Summed up: as §1
Assay [4] concerns the target T2, cSRC(h) (Homo sapiens, UniProt P12931).
T2 construct: gene SRC
Summed up: as §1

Assay [5] concerns the target T3, Abl(h) (Homo sapiens, UniProt P00519).
T3 construct: gene ABL1
The procedure, abridged: as §1

The target in assay [6] is T4, Rsk2(h) (Homo sapiens, UniProt P51812).
T4 construct: gene RPS6KA3
Summed up:
as §1

The target in assay [7] is DDR1(h) (Homo sapiens, UniProt Q08345). The procedure, abridged: as §1
The target of assay [8] is T5, MST2(h) (Homo sapiens, UniProt Q13188).
T5 construct: gene STK3
Summed up: as §1

Assay [9] deals with Ret(h) (Homo sapiens, UniProt P07949). Summed up:
as §1

In assay [10] the target is T6, Fms(Y969C)(h) (Homo sapiens, UniProt P07333, Y969C).
T6 construct: gene CSF1R
Summed up:
as §1

For assay [11], the target named is LIMK1(h) (Homo sapiens, UniProt P53667). Summed up:
as §1

In assay [12] the target is ErbB2(h) (Homo sapiens, UniProt P04626). Summed up: as §1
Assay [13] deals with T7, HPK1(h) (Homo sapiens, UniProt Q92918).
T7 construct: gene MAP4K1
The procedure, abridged: as §1

In assay [14] the target is T8, ACK1(h) (Homo sapiens, UniProt Q07912).
T8 construct: gene TNK2
Summed up:
as §1

The target of assay [15] is T9, SAPK2a(h) (Homo sapiens, UniProt Q16539).
T9 construct: gene MAPK14
The procedure, abridged:
as §1

Assay [16] deals with T10, TrkC(h) (Homo sapiens, UniProt Q16288).
T10 construct: gene NTRK3
Summed up:
as §1

Assay [17] deals with IRAK4(h) (Homo sapiens, UniProt Q9NWZ3). Summed up: as §1
Assay [18] has as its target SIK3(h) (Homo sapiens, UniProt Q9Y2K2). Summed up: as §1
For assay [19], the target named is GRK2(h) (Homo sapiens, UniProt P25098). Summed up: as §1
Assay [20] deals with T11, CaMKIIγ(h) (Homo sapiens, UniProt Q13555).
T11 construct: gene CAMK2G
The procedure, abridged:
as §1

Assay [21] deals with Lck(h) (Homo sapiens, UniProt P06239). Summed up: as §1
Assay [22] has as its target TAF1L(h) (Homo sapiens, UniProt Q8IZX4). The procedure, abridged:
as §1

Assay [23] deals with T12, MINK(h) (Homo sapiens, UniProt Q8N4C8).
T12 construct: gene MINK1
Summed up:
as §1

This note sets out measurements from paper PMC9719519, “Non-classical ferroptosis inhibition by a small molecule targeting PHB2” (Nature Communications, 2022).

T3 sequence (P00519 whole entry): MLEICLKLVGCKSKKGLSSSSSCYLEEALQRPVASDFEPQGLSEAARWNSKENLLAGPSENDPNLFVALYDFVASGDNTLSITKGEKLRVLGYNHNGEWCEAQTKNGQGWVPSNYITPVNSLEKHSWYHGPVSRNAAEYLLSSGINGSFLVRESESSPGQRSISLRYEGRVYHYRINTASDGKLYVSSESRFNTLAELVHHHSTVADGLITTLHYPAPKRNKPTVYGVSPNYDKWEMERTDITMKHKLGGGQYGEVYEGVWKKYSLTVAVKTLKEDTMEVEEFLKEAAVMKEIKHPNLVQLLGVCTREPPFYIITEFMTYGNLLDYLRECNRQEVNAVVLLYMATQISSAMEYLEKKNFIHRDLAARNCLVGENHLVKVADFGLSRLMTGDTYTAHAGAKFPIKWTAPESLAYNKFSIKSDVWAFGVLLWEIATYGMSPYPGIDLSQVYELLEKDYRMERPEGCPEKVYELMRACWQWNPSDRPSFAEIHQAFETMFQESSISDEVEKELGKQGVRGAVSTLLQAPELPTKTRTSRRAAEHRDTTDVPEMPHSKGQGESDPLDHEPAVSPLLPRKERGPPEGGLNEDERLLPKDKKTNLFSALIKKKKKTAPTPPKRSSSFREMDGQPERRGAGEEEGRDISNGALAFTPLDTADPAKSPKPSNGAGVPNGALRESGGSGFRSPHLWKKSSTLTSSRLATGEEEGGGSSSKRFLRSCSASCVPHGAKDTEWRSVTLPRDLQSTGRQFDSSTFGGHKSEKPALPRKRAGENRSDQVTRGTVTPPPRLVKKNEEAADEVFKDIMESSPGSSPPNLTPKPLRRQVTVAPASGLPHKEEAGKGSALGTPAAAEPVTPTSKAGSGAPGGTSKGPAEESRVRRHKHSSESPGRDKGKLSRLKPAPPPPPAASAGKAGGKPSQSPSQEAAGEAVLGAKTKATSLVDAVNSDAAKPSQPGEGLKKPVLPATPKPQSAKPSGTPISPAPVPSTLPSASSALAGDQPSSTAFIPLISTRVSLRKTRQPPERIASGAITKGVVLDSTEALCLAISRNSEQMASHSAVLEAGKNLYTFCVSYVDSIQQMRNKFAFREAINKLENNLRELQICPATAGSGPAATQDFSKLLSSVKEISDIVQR
T8 sequence (Q07912 whole entry): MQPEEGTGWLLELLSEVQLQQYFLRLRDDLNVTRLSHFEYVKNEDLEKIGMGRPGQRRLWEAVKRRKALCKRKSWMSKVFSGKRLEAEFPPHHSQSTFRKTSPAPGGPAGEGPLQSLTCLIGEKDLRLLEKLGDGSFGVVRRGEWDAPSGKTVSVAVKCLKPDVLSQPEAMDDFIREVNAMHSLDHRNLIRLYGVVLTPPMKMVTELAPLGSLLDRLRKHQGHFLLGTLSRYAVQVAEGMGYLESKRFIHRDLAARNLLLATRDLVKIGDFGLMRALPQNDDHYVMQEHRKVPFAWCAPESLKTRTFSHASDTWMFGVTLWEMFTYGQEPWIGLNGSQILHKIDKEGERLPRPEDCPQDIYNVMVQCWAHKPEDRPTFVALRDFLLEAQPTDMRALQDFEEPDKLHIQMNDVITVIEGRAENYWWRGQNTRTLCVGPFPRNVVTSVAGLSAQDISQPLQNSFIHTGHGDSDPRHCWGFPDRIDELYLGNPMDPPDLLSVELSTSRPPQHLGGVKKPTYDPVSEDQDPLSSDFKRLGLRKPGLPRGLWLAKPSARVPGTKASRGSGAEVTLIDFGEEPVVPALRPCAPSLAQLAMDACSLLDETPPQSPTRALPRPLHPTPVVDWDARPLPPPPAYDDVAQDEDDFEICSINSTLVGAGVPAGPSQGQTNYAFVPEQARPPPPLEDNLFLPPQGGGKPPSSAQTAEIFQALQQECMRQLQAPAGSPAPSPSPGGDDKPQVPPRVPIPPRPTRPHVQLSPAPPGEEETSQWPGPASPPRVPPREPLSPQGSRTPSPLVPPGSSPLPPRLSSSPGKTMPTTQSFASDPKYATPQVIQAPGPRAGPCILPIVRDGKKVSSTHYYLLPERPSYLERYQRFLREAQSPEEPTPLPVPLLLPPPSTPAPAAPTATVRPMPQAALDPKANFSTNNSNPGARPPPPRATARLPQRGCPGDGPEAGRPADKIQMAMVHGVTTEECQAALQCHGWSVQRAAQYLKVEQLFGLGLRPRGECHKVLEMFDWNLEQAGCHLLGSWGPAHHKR
T10 sequence (Q16288 whole entry): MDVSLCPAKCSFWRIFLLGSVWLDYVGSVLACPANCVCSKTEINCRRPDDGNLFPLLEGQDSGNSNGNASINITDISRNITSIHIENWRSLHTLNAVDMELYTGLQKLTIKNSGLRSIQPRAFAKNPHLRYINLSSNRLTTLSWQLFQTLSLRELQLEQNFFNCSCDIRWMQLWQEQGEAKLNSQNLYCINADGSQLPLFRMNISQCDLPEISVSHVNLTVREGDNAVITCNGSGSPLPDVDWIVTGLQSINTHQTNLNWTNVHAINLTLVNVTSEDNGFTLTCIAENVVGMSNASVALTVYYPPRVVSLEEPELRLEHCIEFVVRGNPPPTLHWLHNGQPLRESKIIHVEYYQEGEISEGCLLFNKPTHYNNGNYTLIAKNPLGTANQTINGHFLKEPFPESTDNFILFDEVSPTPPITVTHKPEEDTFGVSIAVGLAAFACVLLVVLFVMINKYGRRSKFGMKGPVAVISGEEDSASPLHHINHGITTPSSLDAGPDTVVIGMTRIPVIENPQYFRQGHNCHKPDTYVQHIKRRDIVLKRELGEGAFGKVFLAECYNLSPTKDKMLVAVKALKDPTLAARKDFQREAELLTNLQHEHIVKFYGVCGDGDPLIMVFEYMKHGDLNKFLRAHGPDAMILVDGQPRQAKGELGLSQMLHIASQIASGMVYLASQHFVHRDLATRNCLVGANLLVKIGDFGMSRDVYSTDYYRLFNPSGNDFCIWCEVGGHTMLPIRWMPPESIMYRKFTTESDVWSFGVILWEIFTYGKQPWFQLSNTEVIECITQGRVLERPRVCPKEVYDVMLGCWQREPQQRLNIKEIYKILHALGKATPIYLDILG
T11 sequence (Q13555 whole entry): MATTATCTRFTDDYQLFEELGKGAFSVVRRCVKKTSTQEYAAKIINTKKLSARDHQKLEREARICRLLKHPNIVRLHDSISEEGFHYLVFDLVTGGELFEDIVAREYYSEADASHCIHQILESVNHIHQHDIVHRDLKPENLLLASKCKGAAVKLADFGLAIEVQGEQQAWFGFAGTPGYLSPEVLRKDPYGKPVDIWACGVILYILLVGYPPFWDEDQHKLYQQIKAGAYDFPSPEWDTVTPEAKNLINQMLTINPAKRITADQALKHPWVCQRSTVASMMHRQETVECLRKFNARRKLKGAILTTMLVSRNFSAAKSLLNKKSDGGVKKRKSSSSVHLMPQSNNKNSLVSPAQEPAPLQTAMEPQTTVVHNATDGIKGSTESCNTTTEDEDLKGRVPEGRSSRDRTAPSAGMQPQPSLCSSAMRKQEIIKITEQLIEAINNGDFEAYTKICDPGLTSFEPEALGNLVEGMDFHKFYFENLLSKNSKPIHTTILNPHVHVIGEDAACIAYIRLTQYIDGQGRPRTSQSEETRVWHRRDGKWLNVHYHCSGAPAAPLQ
T12 sequence (Q8N4C8 whole entry): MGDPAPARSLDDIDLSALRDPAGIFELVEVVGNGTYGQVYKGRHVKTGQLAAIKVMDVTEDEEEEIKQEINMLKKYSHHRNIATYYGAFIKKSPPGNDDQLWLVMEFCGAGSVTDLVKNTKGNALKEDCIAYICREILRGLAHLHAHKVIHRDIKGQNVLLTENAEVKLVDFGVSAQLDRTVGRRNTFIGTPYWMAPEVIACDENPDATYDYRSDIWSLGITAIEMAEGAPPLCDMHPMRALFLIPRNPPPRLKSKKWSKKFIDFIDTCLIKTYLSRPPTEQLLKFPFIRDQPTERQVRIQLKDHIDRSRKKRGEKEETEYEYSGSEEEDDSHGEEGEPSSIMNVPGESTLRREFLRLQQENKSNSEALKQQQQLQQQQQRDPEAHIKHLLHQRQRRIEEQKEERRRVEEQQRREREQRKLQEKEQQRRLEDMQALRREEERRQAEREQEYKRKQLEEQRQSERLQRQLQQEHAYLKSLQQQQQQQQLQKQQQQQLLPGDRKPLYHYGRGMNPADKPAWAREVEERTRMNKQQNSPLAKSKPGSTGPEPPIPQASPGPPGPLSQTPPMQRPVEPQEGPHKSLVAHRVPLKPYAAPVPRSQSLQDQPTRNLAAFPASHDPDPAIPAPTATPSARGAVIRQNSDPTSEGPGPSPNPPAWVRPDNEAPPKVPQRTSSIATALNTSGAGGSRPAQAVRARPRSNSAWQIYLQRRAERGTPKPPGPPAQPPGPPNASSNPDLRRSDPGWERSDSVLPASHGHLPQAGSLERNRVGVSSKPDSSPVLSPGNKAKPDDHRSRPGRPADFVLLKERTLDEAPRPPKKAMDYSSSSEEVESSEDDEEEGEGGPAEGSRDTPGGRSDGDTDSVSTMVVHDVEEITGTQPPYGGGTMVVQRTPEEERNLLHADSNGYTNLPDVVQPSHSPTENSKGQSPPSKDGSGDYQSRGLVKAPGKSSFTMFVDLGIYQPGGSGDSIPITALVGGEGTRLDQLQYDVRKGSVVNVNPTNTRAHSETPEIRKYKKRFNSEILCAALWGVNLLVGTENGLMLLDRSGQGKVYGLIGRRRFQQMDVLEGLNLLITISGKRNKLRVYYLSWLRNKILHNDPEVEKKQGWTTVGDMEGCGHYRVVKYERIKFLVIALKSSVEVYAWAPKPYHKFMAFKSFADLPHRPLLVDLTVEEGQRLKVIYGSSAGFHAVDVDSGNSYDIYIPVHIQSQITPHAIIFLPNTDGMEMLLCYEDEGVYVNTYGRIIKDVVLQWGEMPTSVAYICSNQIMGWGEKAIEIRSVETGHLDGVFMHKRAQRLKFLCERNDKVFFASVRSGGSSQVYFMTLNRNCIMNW

For the compound `C1=C(c2nc(-c3cnn(C4CCNCC4)c3)cn3cc(-c4ccccc4)nc23)CCOC1` [YL-939], the remaining activity at 10 µM in assay [1] amounted to 87%; in assay [2], 74%; in assay [3], 94%; in [4], 78%; in [5] it was 102%; in assay [6], 81%. For the same compound, the remaining activity at 10 µM in [7] was 98%; in assay [8] it was 78%; in [9], 123%; in assay [10] it was 107%; in [11], 86%; in assay [12], 72%. The remaining activity at 10 µM was 88% in [13]; 85% in [14]; 103% in assay [15]; 64% in [16]; 96% in assay [17]; 84% in assay [18]. For the same compound, the remaining activity at 10 µM in assay [19] was found to be 111%; in assay [20] it was 86%; in [21] it was 122%; in assay [22], 84%; in [23] it was 95%.
